Measured values reported in patent publication US9493542B2, “Methods of using ERBB2 conjugate peptides” (Augusta University Research Institute, Inc., priority 2013, dated 2016).

Columns and labels:
HSP90 = HSP90 inhibition by 17-AAG: ErbB2 and Erbin levels and ErbB2 complex; format: cell-based
Source text: Erbin regulation of ErbB2 stability was investigated. […] Intriguingly, the effect of 17-AAG could not be blocked by Erbin overexpression (data not shown), indicating Erbin acts upstream or at level of HSP90. ErbB2, HSP90, and Erbin can form a ternary complex necessary for ErbB2 stability. HSP90 as well as Erbin was detectable in the complex of ErbB2 and Erbin interacted HSP90 (data not shown). […] Conversely, Erbin knockdown inhibited the HSP90-ErbB2 interaction (data not shown).

Erbin-ErbB2 interaction = biological target: T1, Erbin-ErbB2 interaction (Homo sapiens, UniProt Q96RT1); test: Co-immunoprecipitation of Flag-ErbB2 with Myc-Erbin from lysates incubated with peptide; format: binding; settings: in vitro; lysates with Flag-ErbB2 or Myc-Erbin, anti-Myc precipitation; compared to control peptide
T1 construct: HEK293 cells were transfected with Flag-ErbB2 alone or together with full length Erbin; expressed in transfected cells; host or cells: Transfected cells
T1 sequence (Q96RT1 whole entry): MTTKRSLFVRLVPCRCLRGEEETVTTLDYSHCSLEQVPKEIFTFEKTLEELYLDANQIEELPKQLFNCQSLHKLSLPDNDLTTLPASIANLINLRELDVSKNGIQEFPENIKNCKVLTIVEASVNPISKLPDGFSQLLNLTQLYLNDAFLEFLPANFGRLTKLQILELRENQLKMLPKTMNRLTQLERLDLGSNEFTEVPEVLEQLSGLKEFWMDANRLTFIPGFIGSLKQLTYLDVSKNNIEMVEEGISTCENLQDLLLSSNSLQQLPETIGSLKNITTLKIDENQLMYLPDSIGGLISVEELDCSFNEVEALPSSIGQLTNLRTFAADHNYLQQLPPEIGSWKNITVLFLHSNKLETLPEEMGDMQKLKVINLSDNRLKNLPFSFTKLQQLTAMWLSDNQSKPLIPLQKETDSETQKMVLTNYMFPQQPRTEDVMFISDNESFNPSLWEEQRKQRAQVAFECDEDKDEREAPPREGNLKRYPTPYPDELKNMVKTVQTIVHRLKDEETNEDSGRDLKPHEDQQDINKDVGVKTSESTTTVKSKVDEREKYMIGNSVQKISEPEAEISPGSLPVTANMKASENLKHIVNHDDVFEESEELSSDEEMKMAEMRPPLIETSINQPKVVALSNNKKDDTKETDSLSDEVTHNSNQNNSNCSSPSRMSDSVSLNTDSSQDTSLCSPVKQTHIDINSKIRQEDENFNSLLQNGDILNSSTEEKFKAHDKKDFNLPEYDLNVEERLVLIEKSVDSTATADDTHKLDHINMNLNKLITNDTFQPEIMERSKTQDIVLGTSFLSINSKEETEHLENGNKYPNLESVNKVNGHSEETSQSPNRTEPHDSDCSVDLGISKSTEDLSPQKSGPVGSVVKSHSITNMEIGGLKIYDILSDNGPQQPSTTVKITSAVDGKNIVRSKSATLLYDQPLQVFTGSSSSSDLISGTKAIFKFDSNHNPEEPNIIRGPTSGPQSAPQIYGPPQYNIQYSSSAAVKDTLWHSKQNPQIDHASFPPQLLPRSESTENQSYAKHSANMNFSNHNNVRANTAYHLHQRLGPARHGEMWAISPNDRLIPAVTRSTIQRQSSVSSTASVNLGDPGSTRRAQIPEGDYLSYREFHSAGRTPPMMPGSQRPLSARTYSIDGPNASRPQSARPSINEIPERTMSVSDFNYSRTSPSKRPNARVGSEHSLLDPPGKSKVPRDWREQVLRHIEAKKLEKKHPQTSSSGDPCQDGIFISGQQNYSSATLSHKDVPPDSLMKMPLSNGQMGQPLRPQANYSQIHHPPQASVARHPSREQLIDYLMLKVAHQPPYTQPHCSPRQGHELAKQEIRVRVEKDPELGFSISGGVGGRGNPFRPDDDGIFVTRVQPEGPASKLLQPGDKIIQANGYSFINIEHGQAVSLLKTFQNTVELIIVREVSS
Source text: FIGS. 5A-5H show the requirement of the Erbin-ErbB2 interaction for ErbB2 stabilization and autophosphorylation and ErbB2-dependent proliferation of breast cancer cells. (A)-(B) Quantitative analysis of pErbB2 and ErbB2 levels in western blots showing decreased ErbB2 expression and autophosphorylation by Erbin-PDZ domain. HEK293 cells were transfected with Flag-ErbB2 with increasing doses of Myc-Erbin-PDZ. Cell lysates were blotted with antibodies against ErbB2, pErbB2 and Myc. (C) Quantitative analysis of western blot data showing the disruption of the Erbin-ErbB2 interaction by B2tail. Lysates of transfected cells expressing Flag-ErbB2 or Myc-Erbin were incubated with control peptide (Ctrl) or B2tail. The Erbin complex was precipitated using anti-Myc antibody and probed for ErbB2. n=3, *P<0.05, compared to Ctrl. […] Cells were treated with 20 μM TAT-Ctrl or TAT-B2tail peptide for 24 hours and analyzed by MTS assay. […]
For immunoprecipitation, cells were lysed in lysis buffer (50 mM Tris-HCl, pH 7.4, 150 mM NaCl, 1% NP-40, 0.5% Triton-X-100, 1 mM PMSF, 1 mM EDTA, 5 mM NaF, 2 mM Na3VO4, and protease inhibitor cocktails). […] Immunoreactive bands were visualized using enhanced chemiluminescence (Pierce), scanned with an Epson 1680 scanner, and analyzed with Image J. […]

ErbB2 [1] = test: ErbB2 stability and pErbB2 in SKBR3 cells after cycloheximide (Western blot); format: cell-based; parameters: dose or concentration left out as unconfirmed; settings: TAT-B2tail for 1 hour prior to CHX, compared to TAT-Ctrl
SKBR3 cells = test: MTS proliferation assay, SKBR3 cells; format: cell-based; settings: 20 μM peptide, 24 hours
Source text: (§1) FIGS. 5A-5H show the requirement of the Erbin-ErbB2 interaction for ErbB2 stabilization and autophosphorylation and ErbB2-dependent proliferation of breast cancer cells. (A)-(B) Quantitative analysis of pErbB2 and ErbB2 levels in western blots showing decreased ErbB2 expression and autophosphorylation by Erbin-PDZ domain. HEK293 cells were transfected with Flag-ErbB2 with increasing doses of Myc-Erbin-PDZ. Cell lysates were blotted with antibodies against ErbB2, pErbB2 and Myc. (C) Quantitative analysis of western blot data showing the disruption of the Erbin-ErbB2 interaction by B2tail. Lysates of transfected cells expressing Flag-ErbB2 or Myc-Erbin were incubated with control peptide (Ctrl) or B2tail. The Erbin complex was precipitated using anti-Myc antibody and probed for ErbB2. n=3, *P<0.05, compared to Ctrl. […] SKBR3 cells were incubated with 20 μM TAT-Ctrl or TAT-B2tail, for 1 hour prior to analysis of ErbB2 stability. n=3, *P<0.05, **P<0.01, compared to TAT-Ctrl. […] Cells were treated with 20 μM TAT-Ctrl or TAT-B2tail peptide for 24 hours and analyzed by MTS assay. […] (F) PDZ deletion inhibited tumorigenesis in MMTV-neu mice on incipient congenic FVB background. […]
(§2) Cell proliferation was measured by MTS assay, as described previously (Zhang, S., et al., Nature medicine, 17, 461-469, 2011). […] Optical density was measured at wavelength of 490 nm.

BT474 cells = test: MTS proliferation assay, BT474 cells; format: cell-based, human; settings: 20 μM peptide, 24 hours
Source text: as §1, §2

[2] = test system: Human breast BT474 cancer cells; test: BT474 breast tumor growth in fat pads of nude mice, intratumoral peptide injection; format: in vivo; settings: 25 μl 5 mM peptide injected into tumors twice a week, one month, versus TAT-Ctrl
Experimental: FIG. 7 is a microscopy image of a breast cancer tumor treated with Tat-ErbB2tail. TAT-ErbB2tail peptide inhibits breast tumor growth in nude mice. Human breast BT474 cancer cells (100 μl, 3.0×10^5 cells in 50% Matri-gel) were injected into fat pads of both sides of female mice. Resulting tumors were injected 2 weeks later with control (TAT-ctrl, left) or B2tail (TAT-B2tail, right) peptide (25 u.l, 5 mM), twice a week. Shown were representative images before injection (A, A′) and one month after injection (B, B′).
The results identify the ErbB2-Erbin interaction as a therapeutic target for fighting ErbB2-positive breast cancers. To test this, B2tail was tested for the ability to inhibit tumor growth in mice. Human breast BT474 cancer cells (100 ul, 3.0×10^5 cells in 50% Matri-gel) were injected into fat pads of both sides of virgin, female mice. Resulting tumors were injected 2 weeks later with control (TAT-Ctrl) or B2tail (TAT-B2tail) peptide (25 μl, 5 mM), twice a week[[.]].

ErbB2 [3] = biological target: T2, ErbB2 (Homo sapiens, UniProt P04626); test: Coexpression of Erbin PDZ domain with Flag-ErbB2 in HEK293 cells (Western blot); format: cell-based; settings: Flag-ErbB2 with increasing doses of Myc-Erbin-PDZ
T2 construct: expressed in transfected cells; host or cells: HEK293
Source text: as §1, with “background. Erbin^ΔC/ΔC mice were backcrossed for 5 generations with FVB wild types and then crossed with FVB-congenic MMTV-neu.” for “background.”

[4] = 17-AAG treatment (data not shown)

Q: With `C=CCNC1=C2C[C@@H](C)C[C@H](OC)[C@H](O)[C@@H](C)/C=C(\C)[C@H](OC(N)=O)[C@@H](OC)/C=C\C=C(/C)C(=O)NC(=CC1=O)C2=O` [17-AAG] as the molecule, how does the ErbB2 degradation (HSP90; [4]) read?
A: The ErbB2 degradation was “resulted in ErbB2 degradation”.

Q: And the Erbin levels (HSP90; [4])?
A: Its Erbin levels is “no effect”.

Q: And the “ErbB2 level after brief treatment” value (HSP90; 17-AAG, 1 hour)?
A: Its value is “without altering ErbB2 level”.

Q: What about the “amount of Erbin in the ErbB2 complex” value (HSP90; 17-AAG, 1 hour) of the same molecule?
A: The value was “reduced”.

Q: PTAENPEYLGLDVPV [B2tail] was tested. Which “disruption of the Erbin-ErbB2 interaction” value (Erbin-ErbB2 interaction) did it give?
A: The value was “able to disrupt the Erbin-ErbB2 interaction”.

Q: How did the “ErbB2 reduction (stability) after CHX” value (ErbB2 [1]) turn out when “YGRKKRRQRRR-G-PTAENPEYLGLDVPV [TAT-B2tail]” was run?
A: Its value is “ErbB2 reduction was faster”.

Q: What about the pErbB2 levels (ErbB2 [1]) of the same molecule?
A: Its pErbB2 levels is “pErbB2 levels were reduced”.

Q: What about the decrease of proliferation (SKBR3 cells) of the same molecule?
A: The decrease of proliferation was “about 40%”.

Q: What about the decrease of proliferation (BT474 cells) of the same molecule?
A: Its decrease of proliferation is ~35%.

Q: And the “size of breast tumors” value [2]?
A: The value was “appeared to decrease”.

B1: PDZ domain of Erbin: Erbin PDZ domain, starts at amino acid 1318 of Erbin, expressed as Myc-tagged construct in HEK293 cells (protein)
chain: AKQEIRVRVEKDPELGFSISGGVGGRGNPFRPDDDGIFVTRVQPEGPASKLLQPGDKIIQANGYSFINIEHGQAVSLLKTFQNTVELIIVREV
modifications: Myc tag; PDZ domain
notes: Erbin PDZ domain, starts at amino acid 1318 of Erbin, expressed as Myc-tagged construct in HEK293 cells
Q: For B1, which “ErbB2 phosphorylation (pErbB2)” value (ErbB2 [3]) is on record?
A: Its value is “reduced”.

Q: What about the “levels of ErbB2” value (ErbB2 [3]) of the same molecule?
A: The value was “reduced”.
